According to patent US20030032587A1, “Urocortin peptides” (The Salk Institute for Biological Studies, priority 1995, published 2003):
Where two headings read alike, the source gives them in different places. One block for each molecule: values may come before it. Where no end group is shown, it is not given here.

Columns and labels:
human CRF-R2β = experiment: competitive displacement binding assay, CRF-R2β stably expressed in CHO cells; settings: read-out: Ki (95% confidence limits); CRF-R2β in stably transfected CHO cells; displacement of [125I-Tyr0]Ucn
Method: Binding assays with cells expressing human CRF-R1 are carried out as described in the Chen et al. P.N.A.S., supra. The affinities of test peptides for CRF-R1 and CRF-R2β stably expressed in CHO cells were determined by competitive displacement of ^125I-(Nle^21, Tyr^32) ovine CRF (for CRF-R1) or of [^125II-Tyr^∘]Ucn (for CRF-R2β) as described.

[1] = test system: primary murine anterior pituitary cells; assay type: cell-based; settings: for EC50: read-out: EC50, secretion of ACTH
Description: A straightforward assay using rat anterior pituitary cells in monolayer culture can be carried out to determine whether a candidate peptide thereof will function as a CRF agonist and stimulate ACTH secretion by activating CRF receptors on such cells. The procedure which is used is that generally set forth in Endocrinology, 91, supra. A very similar assay is used to test for antagonistic properties, using a challenge dose of oCRF or the like.
To test the ability of purified Ucn or another candidate Ucn-like peptide to function as a CRF agonist and to promote ACTH production and/or secretion, cultures of dispersed primary murine anterior pituitary cells (0.15×10^6 cells/well are used), as generally described in Vale et al. Meth. Enzym., 103, 565-577 (1983), and in Endocrinology, 91, 562 (1972). These cultures are maintained in 0.5 ml/well of β-PJ (a reagent available from Kansas City Biochemicals) containing 2% fetal bovine serum. On the morning of culture day 5, the cells are washed 3 times with β-PJ containing 0.1% bovine serum albumin and then incubated for 1 hour at 37° C. in the same medium. The medium is then replaced with Ucn, or an analog thereof, diluted in β-PJ containing 0.1% bovine serum albumin. Incubations are terminated after 3 hours, at which time the medium is removed and stored at −20° C. until ACTH radioimmunoassays are performed using a suitable kit, such as that commercially available from Diagnostic Products Corporation of Los Angeles, Calif. Secreted ACTH is measured using Allfit computer program with results expressed as the average±s.e.m. of 3 replicate bioassays.

rats [2] = experiment: ACTH secretion in vivo, ACTH level in plasma; settings: for ACTH level in plasma: at 30 minutes
rats [3] = experiment: fall in mean arterial blood pressure after peripheral (iv) administration; assay type: in vivo
[4] = target: T1, human CRF binding protein (hCRF-BP) (Homo sapiens, UniProt P24387); experiment: competitive hCRF-BP ligand binding assay; settings: radioligand 125I[Nle21,Tyr32]-oCRF
T1 construct: made in house; host or cells: recombinant CHO cells, conditioned medium
T1 sequence (P24387 25-322): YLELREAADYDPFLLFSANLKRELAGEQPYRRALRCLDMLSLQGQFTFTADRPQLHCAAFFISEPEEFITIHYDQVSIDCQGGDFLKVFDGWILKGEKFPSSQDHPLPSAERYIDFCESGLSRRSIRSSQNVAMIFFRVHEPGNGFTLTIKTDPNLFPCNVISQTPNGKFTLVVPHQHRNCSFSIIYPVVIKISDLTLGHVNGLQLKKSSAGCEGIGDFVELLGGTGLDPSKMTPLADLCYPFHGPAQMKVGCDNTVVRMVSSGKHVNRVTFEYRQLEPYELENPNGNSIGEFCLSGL

murine CRF-R2β = target: T2, murine CRF-R2β (Mus musculus, UniProt Q60748); experiment: elevation of intracellular cAMP in cells expressing mCRF-R2β; assay type: cell-based; settings: read-out: ED50, elevation of cAMP
T2 construct: expressed in transfected cells
T2 sequence (Q60748 1-431 isoform Q60748-2): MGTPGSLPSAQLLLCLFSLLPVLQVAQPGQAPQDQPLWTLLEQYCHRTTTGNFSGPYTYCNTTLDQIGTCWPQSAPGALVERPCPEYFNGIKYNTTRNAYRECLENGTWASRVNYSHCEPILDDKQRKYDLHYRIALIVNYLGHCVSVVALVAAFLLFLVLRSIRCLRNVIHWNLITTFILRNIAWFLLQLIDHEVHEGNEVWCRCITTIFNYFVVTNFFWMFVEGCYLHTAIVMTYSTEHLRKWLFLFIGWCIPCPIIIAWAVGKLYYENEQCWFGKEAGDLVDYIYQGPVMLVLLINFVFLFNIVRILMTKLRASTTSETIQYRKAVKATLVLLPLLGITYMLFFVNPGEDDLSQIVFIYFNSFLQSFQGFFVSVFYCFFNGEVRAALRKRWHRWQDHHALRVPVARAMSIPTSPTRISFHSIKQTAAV
Description: CRF-R is used to refer to a family of receptor protein subtypes which participate in the G-protein-coupled response of cells to CRF and Ucn-like ligands. CRF-Rs are coupled by heterotrimeric G-proteins to various intracellular enzymes, ion channels, and transporters. The G-proteins associate with the receptor proteins at the intracellular face of the plasma membrane. An agonist binding to a CRF-R catalyzes the exchanges of GTP for GDP on the α-subunit (G-protein “activation”), resulting in its dissociation and stimulation of one (or more) of the various signal-transducing enzymes and channels. G-protein preferentially stimulates particular effectors, and the specificity of signal transduction may be determined, therefore, by the specificity of G-protein/receptor interaction. CRF-R proteins mediate signal transduction through the modulation of adenylate cyclase and perhaps through PI turnover. For example, when CRF or Ucn binds to and activates the CRF-R, adenylate cyclase causes an elevation in the level of intracellular cAMP. […] Such transformed cells are monitored for either an increase or decrease in the level of intracellular CAMP which provides a determination of the effectiveness of the potential agonist or antagonist. Methods for measuring intracellular levels of cAMP, or measuring cyclase activity, are well known in the art.

[5] = target: CRF receptors on anterior pituitary cells in culture; experiment: cell-based or functional assay
[6] = target: human CRF-R2β, stably transfected CHO cells (human) (UniProt Q13324); experiment: competitive displacement of [125I-Tyr0]Ucn from stably transfected CHO cells expressing human CRF-R2β; 95% confidence limits in brackets
[7] = target: T3, human CRF binding protein (human, UniProt P24387 25-322); experiment: competitive hCRF-BP ligand binding assay with [125I-DTyr0]hCRF
T3 construct: also called hCRF-BP; CRF-BP
T3 sequence (looked up): T1 sequence (P24387 25-322)
Method: (§1) After incubating with the primary and secondary antisera for 30 minutes each, 1 ml of saline wash is added, and the test tubes are centrifuged at 2000× g for 20 minutes at 4° C. Precipitates are counted in a gamma counter. Inhibitory binding affinity constant (Kᵢ) values are determined using parameters calculated by the LIGAND computer program, Munson et al., Anal. Biochem., 107, 220 (1980), and a Vax/VMS computer system.

[8] = target: CRF receptors on anterior pituitary cells in culture; experiment: cell-based or functional assay; remark: listed apart in the source
[9] = target: T3, human CRF binding protein; experiment: competitive hCRF-BP ligand binding assay with 125I[Nle21,Tyr32]-oCRF
[10] = target: T3, human CRF binding protein; experiment: competitive hCRF-BP ligand binding assay with [125I-DTyr0]hCRF; reference peptide
Method: as §1

Molecule: CC[C@H](C)[C@H](NC(=O)[C@@H](NC(=O)[C@H](CC(=O)O)NC(=O)[C@H](CC(C)C)NC(=O)[C@H](CC(C)C)NC(=O)[C@H](CC(C)C)NC(=O)[C@H](CCCNC(=N)N)NC(=O)[C@H](CC(N)=O)NC(=O)[C@H](CC(N)=O)NC(=O)[C@H](C)NC(=O)[C@H](C)NC(=O)[C@H](CCC(N)=O)NC(=O)[C@H](CCC(N)=O)NC(=O)[C@H](CCCCN)NC(=O)[C@H](CCC(=O)O)NC(=O)[C@H](CCCCN)NC(=O)[C@H](CCC(=O)O)NC(=O)[C@H](CCC(N)=O)NC(=O)[C@H](CCCCN)NC(=O)[C@H](CCC(=O)O)NC(=O)[C@@H](NC(=O)[C@H](CCC(=O)O)NC(=O)[C@@H](NC(=O)[C@H](CCSC)NC(=O)[C@H](CCCCN)NC(=O)[C@H](CCCNC(=N)N)NC(=O)[C@H](CC(C)C)NC(=O)[C@H](CC(C)C)NC(=O)[C@H](CCC(=O)O)NC(=O)[C@H](CC(C)C)NC(=O)[C@H](CO)NC(=O)[C@H](CC(C)C)NC(=O)[C@H](CC(=O)O)NC(=O)[C@@H](NC(=O)[C@H](CO)NC(=O)[C@@H](NC(=O)[C@@H]1CCCN1C(=O)[C@@H]1CCCN1C(=O)CNC(=O)[C@@H]1CCC(=O)N1)[C@@H](C)CC)[C@@H](C)CC)[C@@H](C)CC)[C@@H](C)CC)[C@@H](C)O)C(N)=O [sauvagine, reference compound]
Ki (human CRF-R2β): 2 nM
EC50 ([1]; cultured rodent pituitary cells, incubation 3 hours, average±s.e.m.): ~0.033 nM

Molecule: [Tyr0]rUcn(1-40) (peptide)
ACTH secretion, anterior pituitary cell cultures, potency relative to r/hCRF [5]: 2.2 times r/hCRF

Molecule: CC[C@H](C)[C@H](NC(=O)[C@@H](NC(=O)[C@H](CCC(=O)O)NC(=O)[C@H](CCSC)NC(=O)[C@H](CC(C)C)NC(=O)[C@H](CCCCN)NC(=O)[C@H](CCCNC(=N)N)NC(=O)[C@H](CC(N)=O)NC(=O)[C@H](CO)NC(=O)[C@H](Cc1c[nH]cn1)NC(=O)[C@H](C)NC(=O)[C@H](CCC(N)=O)NC(=O)[C@H](CCC(N)=O)NC(=O)[C@H](C)NC(=O)[C@H](CC(C)C)NC(=O)[C@H](CCC(N)=O)NC(=O)[C@H](CCC(=O)O)NC(=O)[C@H](C)NC(=O)[C@H](CCCNC(=N)N)NC(=O)[C@H](C)NC(=O)[C@H](CCSC)NC(=O)[C@H](CCC(=O)O)NC(=O)[C@H](CC(C)C)NC(=O)[C@@H](NC(=O)[C@H](CCC(=O)O)NC(=O)[C@H](CCCNC(=N)N)NC(=O)[C@H](CC(C)C)NC(=O)[C@H](CC(C)C)NC(=O)[C@H](Cc1c[nH]cn1)NC(=O)[C@H](Cc1ccccc1)NC(=O)[C@@H](NC(=O)[C@H](CC(C)C)NC(=O)[C@H](CC(=O)O)NC(=O)[C@H](CC(C)C)NC(=O)[C@H](CO)NC(=O)[C@@H](NC(=O)[C@@H]1CCCN1C(=O)[C@@H]1CCCN1C(=O)[C@H](CCC(=O)O)NC(=O)[C@H](CCC(=O)O)NC(=O)[C@@H](N)CO)[C@@H](C)CC)[C@@H](C)O)C(C)C)[C@@H](C)CC)C(N)=O [r/hCRF, reference compound]
ACTH level in plasma (rats [2]; 5 μg/kg dose): 422 ± 66 pg/mL

Molecule: SIDLTFHLLRTLIELARTQSQRER (Printed without NH2 at the C-terminus) [[Ile18]-Ucn(6-29)]
binding result [7]: binds

Molecule: SEEPPISLDLTFHLLREVLEMARAEQLAQQAHSNRKLMEII-NH2 (also called r/hCRF; rCRF) [rat/human CRF]
EC50, secretion of ACTH in cultured rodent pituitary cells [8]: 0.043 nM
binding result [9]: binds

Now from value to molecule, other results behind:

binds hCRF-BP more strongly than r/hCRF, factor [4]: about 2
EC50 (murine CRF-R2β): 0.18 ± 0.04 nM
Molecule: CC[C@H](C)[C@H](NC(=O)[C@H](CO)NC(=O)[C@H](CC(C)C)NC(=O)[C@@H]1CCCN1C(=O)[C@@H]1CCCN1C(=O)[C@H](CC(=O)O)NC(=O)[C@@H](N)CC(=O)O)C(=O)N[C@@H](CC(=O)O)C(=O)N[C@@H](CC(C)C)C(=O)N[C@H](C(=O)N[C@@H](Cc1ccccc1)C(=O)N[C@@H](Cc1c[nH]cn1)C(=O)N[C@@H](CC(C)C)C(=O)N[C@@H](CC(C)C)C(=O)N[C@@H](CCCNC(=N)N)C(=O)N[C@H](C(=O)N[C@@H](CC(C)C)C(=O)N[C@@H](CC(C)C)C(=O)N[C@@H](CCC(=O)O)C(=O)N[C@@H](CC(C)C)C(=O)N[C@@H](C)C(=O)N[C@@H](CCCNC(=N)N)C(=O)N[C@H](C(=O)N[C@@H](CCC(N)=O)C(=O)N[C@@H](CO)C(=O)N[C@@H](CCC(N)=O)C(=O)N[C@@H](CCCNC(=N)N)C(=O)N[C@@H](CCC(=O)O)C(=O)N[C@@H](CCCNC(=N)N)C(=O)N[C@@H](C)C(=O)N[C@@H](CCC(=O)O)C(=O)N[C@@H](CCC(N)=O)C(=O)N[C@@H](CC(N)=O)C(=O)N[C@@H](CCCNC(=N)N)C(=O)N[C@H](C(=O)N[C@H](C(=O)N[C@@H](Cc1ccccc1)C(=O)N[C@@H](CC(=O)O)C(=O)N[C@@H](CO)C(=O)N[C@H](C(N)=O)C(C)C)[C@@H](C)CC)[C@@H](C)CC)[C@@H](C)O)[C@@H](C)O)[C@@H](C)O [rUcn]
Ki (human CRF-R2β): 0.41 nM
ACTH level in plasma (rats [2]; 1 μg/kg dose): 659 ± 53 pg/mL
ACTH level in plasma, effect compared with r/hCRF (rats [2]; at 1 hour and at 2 hours): greater effect continues
biopotency for ACTH secretion compared with oCRF ([1]; cultured rodent pituitary cells): more potent than oCRF
stimulates the secretion of ACTH and β-END-LI (β-endorphin) ([1]; result in words): strongly stimulates
fall in mean arterial blood pressure (rats [3]; administered peripherally, e.g. iv, dose as low as 250 ng for a rat of about 250 to 275 grams): marked fall
lowers blood pressure, times as much as either sfUI or r/hCRF (rats [3]; dose of about 3.77 μg/kg): 2-3 times
binding to hCRF-BP compared with sauvagine and sfUI [4]: much more strongly than does sauvagine, but less strongly than sfUI

EC50 ([1]; cultured rodent pituitary cells, no unit printed for this value): 0.017 ± 0.003 nM
EC50 (murine CRF-R2β): 0.74 nM
Molecule: H-NDDPPISIDLTFHLLRNMIEMARIENEREQAGLNRKYLDEV-NH2 [sfUI, reference compound]
Ki (human CRF-R2β): 3 nM

Ki [6]: 0.41 nM
Molecule: rat urocortin (rat Ucn) (peptide)

binding result [7]: binds
Molecule: DLTFHLLRTLLELARTQSQRERAEQ (Printed without NH2 at the C-terminus) [Ucn(8-32)]

binding result [7]: binds
Molecule: PPLSIDLTFHLLRTLLELARTQSQR (Printed without NH2) [Ucn(3-27)]

binding result [10]: binds
Molecule: DLTFHLLREVLEMARAEQLAQQAHS [hCRF(9-33)]
